Each structure is given as a SMILES string.

The nature of the series: Stability in bovine plasma. Type of series: in vitro ADME. The settings on record: 300 μM in citrated bovine plasma, 37° C., 24 h; HPLC detection at 210 nm. Here is the method:
A stock solution of 22(S)-hydroxycholesterol diglutarate was prepared by adding 50 mg of the compound to a 50 ml volumetric flask, followed by 0.5 ml DMSO and deionised water to 50 ml, giving a final concentration of 1.0 mg/ml. The plasma solution was prepared by adding 0.38 ml of the 22(S)-hydroxycholesterol diglutarate stock solution to 1.62 ml of citrated bovine plasma, giving a final concentration of 300 μM. The citrated bovine plasma was incubated at 37° C. for 24 h. Proteins were discarded from the samples by centrifugal filtration before 50 μl volume of the filtrate was injected with an autosampler onto an analytical column (C18 reverse phase system) The mobile phase consisted of a gradient composed of water and acetonitrile (20→50% from 0 to 10 min, the mobile phase increased from 0.5 ml/min→1.0 ml/min in 10 minutes). Eluted compounds were detected at 210 nm.

As to `CC(C)CCC(OC(=O)CCCC(=O)O)[C@@H](C)C1CCC2C3CC=C4CC(OC(=O)CCCC(=O)O)CCC4(C)C3CCC21C` (stereo partly drawn) [22(S)-hydroxycholesterol diglutarate, 22(S)-Hydroxycholesterol Diglutarate], the “detection of compound after incubation in plasma” value is listed as “not possible to detect”.
